Measured values as given in patent US20100028419A1, “MEMBRANE(S) AND USES THEREOF” (priority 2007, published 2010).

Columns and labels:
amoeba Chaos cells = assay: Continuous addition of DPA (C22:5) into amoeba culture medium, TEM study; format: cell-based, Chaos carolinense; conditions: 0.1 mM final concentration, fed Chaos cells with Paramecium present, 3 additions on alternate days, fixed at day 5
Protocol: All-cis-4,7,10,13,16 Docosapentaneoic Acid (DPA, C22:5n-6) (Sigma) and Cis-7,10,13,16,19 DPA (C22:5n-3) (Sigma) were dissolved in Diethyl Ether and added to the amoeba culture media at a final concentration of 0.1 mM. DPA (n-3) and DPA (n-6) were added separately after amoeba washing and in the presence of the food organisms (Paramecium multimicronucleatum). The procedure was performed every alternative day for a total of 3 times according to the regular feeding schedule. At day 5 post-DPA treatment Chaos cells were fixed in 2.5% glutaraldehyde for TEM processing according to the procedure described in Example 6.

MCF-7 cells = assay: In vitro transfection: uptake of fragmented ODN-cubic membrane complexes, fluorescence microscopy and TEM; format: cell-based, human; conditions: 5 h
Protocol: Isolated mitochondria pellets (from fed, 10 days starved Chaos cells and mice liver) from Example 1 and transfected MCF-7 cell pellet prepared according to Example 4 were studied by the conventional TEM technique. Samples in the pellet forms were first fixed individually with 2.5% glutaraldehyde in 1×PBS at 4° C. After washing 4 times with 1×PBS buffer over 1 h to remove glutaraldehyde, the samples were post-fixed with 1% osmium tetroxide in 1× PBS buffer (pH 7.4) for 20 min at room temperature. The specimens were then washed 4 times with the 1×PBS buffer at 4° C. Thereafter 3% gelatin in PBS was added for 30 min before spinning down to collect the pellets at 2,500 rpm for 5 min. The specimens were stored at 4° C. overnight and the steps of adding 2.5% glutaraldehyde in PBS and washing with PBS were repeated for another cycle. The bigger specimens were trimmed into small cubes (1 mm in length) and washed with distilled water for 5 min. Dehydration through ethanol series was done using ethanol of 25%, 50%, 75%, 95% and 100% for 10 min each at room temperature. The specimens were then infiltrated with 100% acetone: resin in 1:1 ratio for 30 min at room temperature and with 100% acetone: resin in 1:6 ratio overnight. […]
There were three negative controls. […] The remaining cells were viewed 5 h post-transfection under the fluorescence microscope for the uptake of tagged-ODNs.

Compound | inner mitochondrial membrane transformation to cubic organization (TEM) (amoeba Chaos cells) | inclusion bodies in cells (TEM) (MCF-7 cells)
CC/C=C\C/C=C\C/C=C\C/C=C\C/C=C\CCCCCC(=O)O [DPA (n-3), Cis-7,10,13,16,19 DPA] | did not have the same drastic effects on the inner mitochondrial membrane organization | –
5′ tct ccc agc gtg cgc cat 3′ (DNA TCTCCCAGCGTGCGCCAT; chemistry not given here) [naked ODNs] | – | no inclusion bodies observed
CCCCC/C=C\C/C=C\C/C=C\C/C=C\C/C=C\CCC(=O)O [DPA (n-6), All-cis-4,7,10,13,16 Docosapentaneoic Acid] | enhanced their inner mitochondrial membrane transformation from random tubular (A) to cubic organization (D) | –
